Measured values as given in patent US20250135012A1, “DENDRIMER CONJUGATES OF SMALL MOLECULE BIOLOGICS FOR INTRACELLULAR DELIVERY” (The Johns Hopkins University, priority 2021, published 2025).
Several values for one entry are separate records, joined by “and”; a condition that tells them apart may be missing. Equal values may be shown once. Non-standard residues stand in square brackets, D forms with d. Residues, ends and D or L forms follow the SMILES beside them. Cya = N[C@@H](CS(=O)(=O)O)C(=O)O

Columns and labels:
[1] = test system: choroidal neovascularization (CNV); experiment: Laser CNV model, CNV area; assay type: in vivo, Brown Norway rats
Description: Animals were anesthetized through intraperitoneal injections of a ketamine/xylazine cocktail (ketamine 50 mg/kg and xylazine 10 mg/kg). Pupils are dilated with topical 2.5% Phenylephrine Hydrochloride solution followed by 0.5% Tetracaine Hydrochloride solution. To induce CNV formation, four equally spaced lesions will be created in the Bruch's membrane with a built-in laser system on the Micron III SLO. Laser power was set to […] with duration of 70 ms. Gonio ophthalmic solution was applied post-operatively to prevent eyes from drying and forming cataracts.
On the day of CNV induction (Day 0), D-ALG1001 and ALG1001 was administered intraperitoneally at a dose of 150 μg on a peptide basis. […]
After fixation, the posterior segment of the eye was dissected out and the retina separated from the choroid. […] Samples for CNV quantification were imaged with an Axiovert phase contrast microscope. […]
A Micron III SLO scope and laser attachment was used to induce CNV formation in mice. […] Whether dendrimer conjugation impeded the peptide from attenuating CNV was assessed by first injecting ALG-1001 and D-ALG intravitreally after CNV induction. The eyes were then collected on day 7 and CNV area quantified.
The protection and targeting of D-ALG allowed for less invasive administration routes. […] Choroidal flatmount of eyes at day 7 and 14 were imaged and the CNV area was calculated using ImageJ.

TNFα [2] = experiment: Choroid TNFα qPCR; assay type: in vivo, Brown Norway rats; settings: 7 and 14 days
Description: (§1) In brief, 500 μL of T-Per supplemented with PHOSSTOP® and proteinase inhibitor cocktail was added to tubes containing dissected choroid. A scoop of 1.6 mm steel homogenization beads was added to each sample and then placed in […]® LT (Qiagen) at an oscillation frequency of 50/s for 15 minutes. For qPCR, 200 μL of TRIZOL® was added to tubes containing choroid and a scoop of 1.6 mm steel homogenization beads was added. The samples were placed in […]® LT at an oscillation frequency of 50/s for 15 minutes.
(§2) 100 μL of chloroform was added to the Trizol suspension and the aqueous phase was separated with a centrifuge at 10K RPM at 4° C. for 15 minutes. 400 μL of 2-propanol was added to the aqueous solution and spun again to pellet the RNA. The RNA was washed with 70% ethanol solution, pelleted again, and re-suspended in DEPC (ultrapure treated to inactivated enzymes) water.
(§3) To convert RNA to complementary DNA, 2 μg of RNA was converted using a High-Capacity cDNA Reverse Transcription Kit (Applied Biosystems, Foster City, CA). Samples were analyzed using STEPONE PLUS® real-time PCR system (Applied Biosystems) with SYBR Green reagent (ThermoFisher Scientific). Relative expression was quantified with ΔΔCt calculations normalized to controls. Primers for GAPDH was obtained from Bio-Rad Laboratories (Hercules, CA). Primers were purchased from Integrated DNA Technologies (Coralville, IA). […]

FAK [3] = experiment: Western blot, FAK and phospho-FAK in VEGF stimulated HUVEC; assay type: cell-based, human
Description: Cells were treated with D-ALG1001 and ALG-1001 for 24 h before activation with VEGF for 5 minutes. […] Cells were lysed with TRIZOL® and processed as previously described for qPCR analysis.
Concentration of protein was determined with the BCA protein assay kit (Thermo Scientific, Rockford, IL). Equal amount of protein was denatured and resolved on 4-15% TGX gels (Bio-Rad, Hercules, CA). Gels were transferred to nitrocellulose membranes, blocked with 3% Bovine Serum Albumin (“BSA”) at RT for 1 h, and probed for GAPDH, FAK, pFAK, MAPK, and pMAPK at 4° C. overnight. Membranes were washed thrice before incubation with HRP-conjugated secondary antibodies followed by incubation with chemiluminescent substrate for visualization.
To elucidate the mechanism through which D-ALG and ALG-1001 influence angiogenic function, cells were pre-treated with D-ALG and ALG-1001 for 24 h. The cells were then stimulated with a high dose of exogenous VEGF for 5 min after which the samples were collected for western blotting. The samples were probed for expression of total FAK, phospho-FAK (Y397), ERK1/2, phospho-ERK1/2, and Cyclophilin B (CycB) with CycB acting as the internal control.

FAK [4] = experiment: Choroid total FAK and phospho-FAK (Y397) ELISA; assay type: in vivo, Brown Norway rats
Description: as §1
For protein extracted from tissues, total FAK and FAK (Phospho) [pY397] ELISA kits (Invitrogen) were used to quantify the level of protein expression and the measured protein expression was normalized to the total protein amount of each sample as determined from BCA assays.
To evaluate activation of FAK and ERK pathways, eyes were enucleated at set time points and the choroidal tissue dissected out. Tissues were submerged in a mixture of T-per, proteinase inhibitor, and PhosStop with stainless steel homogenization beads and homogenized to produce protein extracts. Total FAK, total ERK, p-FAK (Y397), and p-44/42 ERK ELISA kits were used to quantify the amount of total and phosphorylated proteins in FAK and ERK pathways. […] However, the level of total FAK protein in ALG-1001 treated animals was elevated at day 14.

IL1β = IL1β expression in LPS stimulated RAW264.7 cells (qPCR); assay type: cell-based, murine; settings: 24 h pretreatment, LPS 3 h
Description: (§4) RAW264.7 cells were seeded at a density of 1×10^5 cells per well in 12-well plates 48 h before treatment. Cells were incubated with D-ALG1001 and ALG-1001 for 24 h, the treatment media was aspirated then LPS at a concentration of 10,000 Endotoxin Units/mL was added to stimulate inflammatory response. Samples were collected 3 h after LPS stimulation for qPCR analysis.
as §2
as §3, with “IA). Primers for TNFα were:” for “IA).”

TNFα [5] = experiment: TNFα expression in LPS stimulated RAW264.7 cells (qPCR); assay type: cell-based, murine; settings: only at the highest dose
Description: as §4, §2
as §3, with “IA). Primers for TNFα were:” for “IA).”

Structure (SMILES): C[C@@H](O)[C@H](NC(=O)[C@H](CS(=O)(=O)O)NC(=O)CNC(=O)[C@H](CCCNC(=N)N)NC(=O)CN)C(=O)N1CCC[C@H]1C(=O)O [ALG-1001] (H-GRG[Cya]TP-OH; N-terminus and C-terminus assumed)
- reduction of CNV formation ([1]; day 7, intraperitoneal 150 μg peptide basis every 4 days): ~60% and 40%
- formation of CNV ([1]; intravitreal, day 7): significantly inhibited
- TNFα level (qPCR) (TNFα [2]): lower TNFα levels across both time points
- reduction of phospho-FAK (FAK [3]; 1 mM on a peptide basis, vs VEGF stimulated controls): 20%
- total FAK and phospho-FAK expression (FAK [3]; vs untreated VEGF stimulated controls): lower levels of total FAK and phosphor-FAK
- p-FAK protein (FAK [4]; 7 and 14 days): reduction of p-FAK
- total FAK protein (FAK [4]; day 14): elevated
- impact on IL1β production (IL1β): no impact on IL1β production
- reduction of TNFα expression (TNFα [5]): 20%
